# Measurements: patent US20060105393A1, “Ligand-receptor tracking assays” (priority 2004, published 2006)
# How the values were obtained:
# [1] = molecular target: T1, GHSR-1a receptor (Homo sapiens, UniProt Q92847); assay: Internalization of GHSR-1a with Ghrelin(1-19)-Texas Red (high content ligand tracking); type: cell-based; conditions: 1 μM competitor, 10 nM Ghrelin(1-19)-Texas Red, 30 minutes at 37° C. (FIG. 7)
# T1 construct: expressed in transfected cells
# [2] = molecular target: T2, NK3R (Homo sapiens, UniProt P29371); conditions: mixed cells
# T2 sequence (P29371 1-465): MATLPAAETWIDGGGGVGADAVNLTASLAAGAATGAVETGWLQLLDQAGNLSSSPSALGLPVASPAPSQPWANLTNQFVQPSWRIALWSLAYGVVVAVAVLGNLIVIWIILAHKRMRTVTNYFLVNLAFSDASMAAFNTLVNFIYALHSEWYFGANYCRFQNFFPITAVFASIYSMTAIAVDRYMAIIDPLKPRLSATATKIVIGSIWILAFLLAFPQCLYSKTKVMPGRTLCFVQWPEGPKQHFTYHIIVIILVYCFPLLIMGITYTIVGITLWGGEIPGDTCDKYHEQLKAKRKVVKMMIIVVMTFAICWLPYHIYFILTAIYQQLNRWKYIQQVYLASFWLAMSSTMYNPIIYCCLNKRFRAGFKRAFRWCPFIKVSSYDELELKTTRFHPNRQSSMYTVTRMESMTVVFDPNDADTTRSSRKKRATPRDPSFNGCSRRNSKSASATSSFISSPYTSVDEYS
# [3] = molecular target: T3, SSTR-5 (Homo sapiens, UniProt P35346); assay: Multiplexed internalization assay, SSTR-5 readout (Atto590-SST14) in mixed NK3R and SSTR5 cells; type: cell-based; conditions: for SSTR-5 internalization with excess competitor: 1 μM competitor (FIG. 5)
# T3 construct: expressed in transfected cells
# [4] = molecular target: recombinant human Somatostatin receptor 5 (Homo sapiens, UniProt P35346); conditions: 1 μM competitor, 100 nM Atto590-SST14, 30 minutes at 37° C. (FIG. 1)
# [5] = molecular target: hV1bR (Homo sapiens, UniProt P47901); conditions: 100 nM competitor, 5 nM BO-TMR-vasopressin, 30 minutes at 37° C. (FIG. 9)
# [6] = molecular target: T2, NK3R; conditions: 1 μM competitor, 1 nM Atto655-NKB, 30 minutes at 37° C. (FIG. 3)
# T3 sequence (P35346 whole entry): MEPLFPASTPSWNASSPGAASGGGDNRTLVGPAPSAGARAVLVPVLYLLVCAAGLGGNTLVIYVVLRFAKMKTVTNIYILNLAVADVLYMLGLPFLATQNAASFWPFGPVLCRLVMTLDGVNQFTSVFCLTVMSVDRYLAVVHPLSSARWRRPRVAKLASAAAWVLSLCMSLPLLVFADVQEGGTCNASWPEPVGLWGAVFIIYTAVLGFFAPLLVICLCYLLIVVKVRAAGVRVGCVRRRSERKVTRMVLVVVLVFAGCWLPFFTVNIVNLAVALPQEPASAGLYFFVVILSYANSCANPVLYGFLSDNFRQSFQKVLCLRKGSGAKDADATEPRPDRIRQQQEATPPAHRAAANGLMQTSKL
# T1 sequence (Q92847 whole entry): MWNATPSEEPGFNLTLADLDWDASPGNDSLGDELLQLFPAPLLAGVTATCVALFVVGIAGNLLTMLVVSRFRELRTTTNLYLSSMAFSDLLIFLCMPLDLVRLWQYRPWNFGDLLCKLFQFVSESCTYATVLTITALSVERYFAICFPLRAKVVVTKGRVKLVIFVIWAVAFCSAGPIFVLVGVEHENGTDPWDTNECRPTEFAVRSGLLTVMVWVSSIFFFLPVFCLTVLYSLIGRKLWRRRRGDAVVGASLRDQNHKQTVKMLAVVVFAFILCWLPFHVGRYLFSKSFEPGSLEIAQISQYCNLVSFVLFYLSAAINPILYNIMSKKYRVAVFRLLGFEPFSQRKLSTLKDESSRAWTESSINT
# Chain of hV1bR (P47901 whole entry): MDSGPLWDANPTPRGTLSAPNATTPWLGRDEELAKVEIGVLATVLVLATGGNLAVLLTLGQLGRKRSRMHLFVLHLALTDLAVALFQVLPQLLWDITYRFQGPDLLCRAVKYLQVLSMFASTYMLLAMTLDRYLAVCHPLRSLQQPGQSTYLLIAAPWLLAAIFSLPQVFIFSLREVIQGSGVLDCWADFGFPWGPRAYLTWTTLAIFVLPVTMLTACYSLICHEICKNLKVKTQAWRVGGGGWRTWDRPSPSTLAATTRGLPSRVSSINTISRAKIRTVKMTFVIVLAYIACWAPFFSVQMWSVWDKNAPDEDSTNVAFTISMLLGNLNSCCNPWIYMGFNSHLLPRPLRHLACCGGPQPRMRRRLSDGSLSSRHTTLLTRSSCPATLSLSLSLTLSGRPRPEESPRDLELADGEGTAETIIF
# Chain of recombinant human Somatostatin receptor 5 (P35346 whole entry): as the sequence (P35346 whole entry) above
molecule,measurement,setting,value
CC(C)(N)C(=O)N[C@H](COCc1ccccc1)C(=O)N1CCC2(CC1)CN(S(C)(=O)=O)c1ccccc12 [MK0677],formation of fluorescent ERCs on co-incubation with excess competitor,[1],blocked the formation of fluorescent ERCs
Somatostatin-14 [SST14],intensity of Atto655-NKB in ERCs with increasing amount of competitor,[2]; dose response (FIG. 6),unchanged
same,SSTR-5 internalization with excess competitor,[3],inhibited in a selective manner
same,formation of fluorescent ERCs on co-incubation with excess competitor,[4],block the formation of fluorescent ERCs
Arg-8-Vasopressin,formation of fluorescent ERCs on co-incubation with excess competitor,[5],blocked the formation of fluorescent ERCs in most cells
CC[C@H](NC(=O)c1c(C)c(-c2ccccc2)nc2ccccc12)c1ccccc1 [SB222200],formation of fluorescent ERCs on co-incubation with excess competitor,[6],blocked the formation of fluorescent ERCs
same,NK3R mediated internalization of fluorescent ligand with excess competitor,[2]; 1 μM competitor (FIG. 5),blocked
same,SSTR-5 internalization with excess competitor,[3],no effect
same,amount of internalized Atto590-SST14 with increasing amount of competitor,[3]; dose response (FIG. 6),unaffected
